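Protocol summary: plate cells (96-well), add compound at 5 concentrations, incubate 48 h, interpolate endpoints linearly. At the TGI there is no net growth.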
How the values were obtained:
Assay in all cases: growth of human tumour cells (NCI), 48 h
[1] = test system: SN12C renal
[2] = test system: RXF 393 renal
[3] = test system: UACC-62 melanoma
[4] = test system: OVCAR-8 ovarian
[5] = test system: OVCAR-4 ovarian
[6] = test system: SF-539 CNS
[7] = test system: M14 melanoma
[8] = test system: HOP-92 NSCLC
[9] = test system: OVCAR-5 ovarian
[10] = test system: CAKI-1 renal
[11] = test system: MALME-3M melanoma
[12] = test system: SK-MEL-5 melanoma
[13] = test system: SW-620 colon
[14] = test system: HL-60(TB) leukemia
[15] = test system: KM12 colon
[16] = test system: HCT-116 colon
[17] = test system: NCI-H460 lung
[18] = test system: LOX IMVI melanoma
[19] = test system: K-562 leukemia
[20] = test system: NCI-H522 lung

O=Nn1c2ccccc2c2cc([N+](=O)[O-])ccc21
TGI [1]: 37 µM
TGI [2]: 30.8 µM
TGI [3]: 32.9 µM
TGI [4]: 31.6 µM
TGI [5]: 32.1 µM
TGI [6]: 37.2 µM
TGI [7]: 47.9 µM
TGI [8]: 29.8 µM
TGI [9]: 47.7 µM
TGI [10]: 31.6 µM
TGI [11]: 38.5 µM
TGI [12]: > 100 µM
TGI [13]: 59.7 µM
TGI [14]: > 100 µM
TGI [15]: 42 µM
TGI [16]: 32.5 µM
TGI [17]: 54.2 µM
TGI [18]: 30.9 µM
TGI [19]: > 100 µM
TGI [20]: 29.1 µM

CC(C)OP(=O)(OC(C)C)C1=NN(c2ccc([N+](=O)[O-])cc2)C(P(=O)(OC(C)C)OC(C)C)=NN1c1ccc([N+](=O)[O-])cc1
TGI [1]: > 100 µM
TGI [2]: > 100 µM
TGI [3]: > 100 µM
TGI [4]: > 100 µM
TGI [5]: > 100 µM
TGI [6]: > 100 µM
TGI [7]: > 100 µM
TGI [8]: > 100 µM
TGI [9]: > 100 µM
TGI [10]: > 100 µM
TGI [11]: > 100 µM
TGI [12]: > 100 µM
TGI [13]: > 100 µM
TGI [14]: 16.4 µM
TGI [15]: > 100 µM
TGI [16]: > 100 µM
TGI [17]: > 100 µM
TGI [18]: > 100 µM
TGI [19]: > 100 µM
TGI [20]: > 100 µM

Source: PubChem BioAssay (NCI)
